Reference: publication PMC3743770, “A Selective HDAC 1/2 Inhibitor Modulates Chromatin and Gene Expression in Brain and Alters Mouse Behavior in Two Mood-Related Tests” (PLoS ONE, 2013)
Read-outs that look alike come from different tables or passages of the source. Each block holds one molecule with its values, some of them ahead of it.

Columns and labels:
[1] = tested on: 80 common CNS targets including receptors, channels and transporters; assay: CNS target binding assays (Cerep High-Throughput Profile P-3); settings: 10 µM, duplicate; significance 50% inhibition of control binding
Text: The specific ligand binding to the receptors is defined as the difference between the total binding and the nonspecific binding determined in the presence of an excess of unlabelled ligand. […] The experiment was accepted in accordance with Cerep’s validation Standard Operating Procedure.

[2] = tested on: H4K12 acetylation in HEK293 cells; assay: H4K12 acetylation western blot, constant exposure and washout; format: cell-based, human; settings: for H4K12ac levels after washout: HEK293, 20 µM 24 hr, then 6 hr after media change; for H4K12ac levels, constant exposure: HEK293, 20 µM for 24 hr
Experimental: Frozen mouse brains (n = 6/treatment group) were rapidly dissected at 4°C to isolate frontal cortex (including PFC), ventral striatum (including NAc), and HIP for protein extraction. […] Solutions for protein extraction were supplemented with 5 mM sodium butyrate to suppress residual HDAC activity. […] Densitometric quantification was performed using Image J software (NIH) and statistical comparison to vehicle-treated controls by two-tailed t-test.
Protein was extracted by douncing in suspension buffer: 0.1 M NaCl, 0.01 M TrisCl (ph7.6), 0.001 M EDTA (pH 8.0), then immediately diluted with an equal volume of 2x SDS-gel loading buffer: 100 mM TrisCl (ph 6.8), 4% SDS, 20% glycerol, 200 mM DTT. […] Media was aspirated and cells collected for Western blotting using 40 μL buffers as detailed above for mouse brain. Solutions for protein extraction were supplemented with 5 mM sodium butyrate to suppress residual HDAC activity. Samples were denatured at 95°C for 5 min, passaged 3x through a 25 gauge needle and centrifuged at 10,000g for 10 min at room temperature and protein quantification performed using a BCA protein assay kit #23225 (Pierce). […] Chemiluminescent detection of immunoreactivity was performed using SuperSignal West Dura Substrate #34076 (Pierce) with subsequent densitometric quantification using Image J software (NIH) and statistical comparison to vehicle-treated controls by two-tailed t-test.

[3] = Mouse brain pharmacokinetics; format: in vivo; settings: for half-life: read-out: brain T1/2 (converted)
Experimental: Plasma, brain samples, and dose formulations, were analyzed as previously described using high performance liquid chromatography/mass spectrometry. Data acquisition and control system were created using Analyst 1.4 software (ABI Inc, Canada).

[4] = Positron emission tomography of carbon-11 labeled Cpd-60; format: in vivo, baboon (Papio anubis); settings: intravenous, preliminary unpublished data
Text: Male 11 wk old C57BL/6 mice were utilized for pharmacokinetic, behavioral and biochemical analyses. One female baboon (Papio Anubis) was used to determine brain uptake and pharmacokinetics of Cpd-60. […] Non-human primate housing conditions and feeding regimens were coordinated by the professional investigative staff at the Brookhaven Laboratory Animal Facility which included social housing in cages appropriate for the physical and behavioral health of the individual animal. Animals were fed a 3x per day with additional nutritional supplements provided as prescribed by the attending veterinarian. Environmental enrichment included audio, video and tactile elements (e.g. listening to the radio, watching television, playing with toys and human interaction) and were provided on a daily basis to promote psychological well-being. All procedures were performed without compromising animal welfare and all efforts were made to minimize suffering including adequate use of anesthesia (ketamine, isoflurane) in the baboon imaging experiment. The baboon was not sacrificed following the study and further effort was taken to minimize suffering by allowing an interval of at least one month between subsequent imaging studies in the same animal.
C57BL/6 male mice were purchased at 10 weeks of age from The Jackson Laboratory and Taconic Farms. […]

C57BL/6 mice [5] = assay: Amphetamine-induced hyperlocomotion (AIH); format: in vivo, mouse; settings: chronic i.p.; Cpd-60 45 mg/kg, SAHA 25 mg/kg; vs vehicle; amphetamine 3.5 mg/kg
Experimental: (§1) Compounds were administered between 9 am and 1 pm for 7 days prior to the start of behavioral testing, and after completion of each daily session during behavioral testing. Testing was performed 18–24 hr after the previous treatment to avoid transient effects. Amphetamine-induced hyperlocomotion (AIH) was performed as previously described on days 7–9 of treatment with activity measured before and after amphetamine challenge (AccuScan Instruments, Inc.). Forced-swim test (FST) behavior was performed as previously described on day 10 of treatment and total time spent immobile during a 6 min session was scored automatically (Ethovision; Noldus). Treatment effects were analyzed by one way analysis of variance (ANOVA) with post hoc analysis using Least Squared Differences test (SPSS v18.0 IBM).

C57BL/6 mice [6] = assay: Forced-swim test (FST); format: in vivo, mouse
Experimental: as §1

[7] = tested on: transcripts in PFC, NAc and HIP; assay: Whole genome transcript profiling of brain regions (microarray); format: in vivo, mouse; settings: for overlap with the 121 transcripts modulated by lithium: Gene Set Enrichment Analysis; for transcripts altered across the three regions: PFC, NAc, HIP compiled, ≥[…] vs vehicle; for transcripts up- or down-regulated, summed across the three brain regions: Tukey's HSD p<0.05 vs vehicle
Experimental: Frozen mouse brains (n = 6/treatment group) were rapidly dissected at 4°C to isolate medial prefrontal cortex (PFC), nucleus accumbens (NAc) and hippocampus (HIP) for mRNA extraction. Whole genome transcript profiling was performed using the Illumina MouseWG-6 Expression BeadChip with subsequent validation by quantitative real-time PCR (qPCR) and is available online at the NCBI Gene Expression Omnibus repository (GSE47452).
Frozen mouse brains (n = 6/ treatment group) were rapidly dissected at 4°C, isolating medial prefrontal cortex, nucleus accumbens and hippocampus. […] For microarray experiments on Illumina MouseWG-6 BeadChips, RNA samples were pooled from two biological replicates such that the total number of samples was 27 (3 treatment groups x 3 brain regions x 3 RNA pools representing two mice per pool). All microarray analysis and gene set analysis (GSA) was performed using GeneSpring software (v.11.5.1) with raw signals adjusted using quantile normalization and baseline transformation with the median signal in all samples set to zero. Data were included in subsequent analyses if the normalized signal, thresholded at 0.8, was ‘present’ for 3 of 3 replicates for like treatment and tissue groups. […] Primer sequences for qPCR validation were designed using NCBI PRIMER-BLAST (Table S2).

mice = assay: Tolerability of chronic treatment; format: in vivo; settings: Cpd-60 45 mg/kg i.p., SAHA 25 mg/kg i.p.
HDAC4 = HDAC4 (Homo sapiens, UniProt P56524); assay: biochemical
[8] = tested on: histone H4K12 acetylation in cultured primary mouse neuronal cells; assay: Mouse primary neuronal histone acetylation assay; settings: Neuron, 24 h, read-out: EC50 for H4K12 acetylation
HDAC8 = target: T1, HDAC8 (Homo sapiens, UniProt Q9BY41); assay: HDAC inhibition assay, recombinant enzyme, Caliper EZ reader
T1 sequence (Q9BY41 1-377): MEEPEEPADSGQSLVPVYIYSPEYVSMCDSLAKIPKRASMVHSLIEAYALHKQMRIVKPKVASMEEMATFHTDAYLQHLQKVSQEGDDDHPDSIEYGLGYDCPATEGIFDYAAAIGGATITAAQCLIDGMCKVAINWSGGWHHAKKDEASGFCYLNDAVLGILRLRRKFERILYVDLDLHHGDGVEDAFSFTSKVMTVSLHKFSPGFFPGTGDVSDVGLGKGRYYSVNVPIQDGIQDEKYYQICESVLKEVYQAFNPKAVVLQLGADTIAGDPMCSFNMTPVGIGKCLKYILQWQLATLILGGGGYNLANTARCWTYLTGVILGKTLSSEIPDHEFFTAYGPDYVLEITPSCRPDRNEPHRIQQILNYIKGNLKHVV

HDAC5 = HDAC5 (Homo sapiens, UniProt Q9UQL6); assay: as above
HDAC7 = target: T2, HDAC7 (Homo sapiens, UniProt Q8WUI4); assay: as above
T2 sequence (Q8WUI4 1-952): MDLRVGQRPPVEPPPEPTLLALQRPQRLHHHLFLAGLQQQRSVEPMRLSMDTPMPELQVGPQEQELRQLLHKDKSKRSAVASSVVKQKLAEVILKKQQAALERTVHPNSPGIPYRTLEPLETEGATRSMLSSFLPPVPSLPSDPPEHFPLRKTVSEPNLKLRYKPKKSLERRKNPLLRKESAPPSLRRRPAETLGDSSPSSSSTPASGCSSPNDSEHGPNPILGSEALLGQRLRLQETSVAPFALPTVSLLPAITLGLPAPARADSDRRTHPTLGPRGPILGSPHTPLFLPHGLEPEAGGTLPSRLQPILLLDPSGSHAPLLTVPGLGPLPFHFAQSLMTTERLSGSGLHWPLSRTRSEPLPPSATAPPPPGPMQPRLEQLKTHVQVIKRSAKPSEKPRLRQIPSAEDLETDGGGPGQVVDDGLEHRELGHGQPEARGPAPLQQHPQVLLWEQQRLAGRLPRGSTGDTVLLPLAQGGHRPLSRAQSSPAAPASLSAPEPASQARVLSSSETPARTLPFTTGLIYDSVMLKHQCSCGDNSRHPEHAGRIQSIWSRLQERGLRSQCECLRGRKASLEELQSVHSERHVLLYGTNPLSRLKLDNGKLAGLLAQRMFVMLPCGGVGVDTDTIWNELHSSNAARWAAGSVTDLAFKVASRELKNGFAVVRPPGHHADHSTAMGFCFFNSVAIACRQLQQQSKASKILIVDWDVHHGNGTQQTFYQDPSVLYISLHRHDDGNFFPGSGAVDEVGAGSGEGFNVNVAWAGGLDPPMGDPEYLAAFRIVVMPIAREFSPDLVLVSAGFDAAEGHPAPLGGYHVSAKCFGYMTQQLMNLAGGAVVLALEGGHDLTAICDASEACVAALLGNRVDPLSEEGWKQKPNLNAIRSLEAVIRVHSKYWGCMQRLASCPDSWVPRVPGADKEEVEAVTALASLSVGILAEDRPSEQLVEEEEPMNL

HDAC9 = HDAC9 (Homo sapiens, UniProt Q9UKV0); assay: as above
[9] = tested on: H4K12ac around TSS of Agxt2l1, Sgk1, Sult1a1, Tsc22d3; assay: Chromatin immunoprecipitation (H4K12ac) of nucleus accumbens with qPCR; settings: NAc; 0.5 kB downstream of each TSS; 45 mg/kg i.p. 10 days
C57BL/6 mice [10] = settings: 85 mg/kg i.p.; cited from earlier work
[11] = tested on: transcripts in whole brain; settings: chronic lithium, ref McQuillin et al, 2007; cited from earlier work
[12] = chronic i.p., day 10, Cpd-60 45 mg/kg, SAHA 25 mg/kg, vs vehicle

HDAC5, sequence (Q9UQL6 whole entry): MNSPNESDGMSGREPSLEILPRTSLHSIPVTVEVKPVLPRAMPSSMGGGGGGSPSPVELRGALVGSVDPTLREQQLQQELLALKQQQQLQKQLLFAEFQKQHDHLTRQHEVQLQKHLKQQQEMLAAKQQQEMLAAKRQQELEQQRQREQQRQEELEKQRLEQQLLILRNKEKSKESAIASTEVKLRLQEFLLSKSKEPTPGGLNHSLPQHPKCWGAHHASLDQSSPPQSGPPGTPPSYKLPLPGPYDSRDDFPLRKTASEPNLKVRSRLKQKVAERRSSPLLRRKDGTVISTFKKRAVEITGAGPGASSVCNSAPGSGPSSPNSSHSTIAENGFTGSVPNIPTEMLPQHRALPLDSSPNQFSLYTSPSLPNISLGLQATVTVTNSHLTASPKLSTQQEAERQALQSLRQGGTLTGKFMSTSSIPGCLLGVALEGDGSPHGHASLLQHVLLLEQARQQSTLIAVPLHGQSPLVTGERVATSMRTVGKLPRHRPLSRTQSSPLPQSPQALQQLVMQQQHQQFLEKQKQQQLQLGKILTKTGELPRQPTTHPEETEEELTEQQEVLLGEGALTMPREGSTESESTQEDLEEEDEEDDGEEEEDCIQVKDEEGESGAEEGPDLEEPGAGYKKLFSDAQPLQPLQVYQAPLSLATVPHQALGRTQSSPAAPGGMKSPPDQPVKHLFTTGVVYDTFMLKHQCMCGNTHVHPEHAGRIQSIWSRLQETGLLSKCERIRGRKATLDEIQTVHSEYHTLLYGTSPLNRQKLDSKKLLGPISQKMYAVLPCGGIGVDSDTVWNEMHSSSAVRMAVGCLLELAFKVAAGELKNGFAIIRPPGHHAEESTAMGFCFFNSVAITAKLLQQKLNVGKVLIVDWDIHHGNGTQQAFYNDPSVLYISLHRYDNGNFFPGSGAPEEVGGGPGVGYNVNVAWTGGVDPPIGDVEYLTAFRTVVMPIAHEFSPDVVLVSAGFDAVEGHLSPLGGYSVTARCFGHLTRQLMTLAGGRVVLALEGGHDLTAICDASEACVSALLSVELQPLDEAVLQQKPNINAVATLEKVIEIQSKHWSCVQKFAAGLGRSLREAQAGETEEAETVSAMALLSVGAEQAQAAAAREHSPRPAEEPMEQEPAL
HDAC9, sequence (Q9UKV0 whole entry): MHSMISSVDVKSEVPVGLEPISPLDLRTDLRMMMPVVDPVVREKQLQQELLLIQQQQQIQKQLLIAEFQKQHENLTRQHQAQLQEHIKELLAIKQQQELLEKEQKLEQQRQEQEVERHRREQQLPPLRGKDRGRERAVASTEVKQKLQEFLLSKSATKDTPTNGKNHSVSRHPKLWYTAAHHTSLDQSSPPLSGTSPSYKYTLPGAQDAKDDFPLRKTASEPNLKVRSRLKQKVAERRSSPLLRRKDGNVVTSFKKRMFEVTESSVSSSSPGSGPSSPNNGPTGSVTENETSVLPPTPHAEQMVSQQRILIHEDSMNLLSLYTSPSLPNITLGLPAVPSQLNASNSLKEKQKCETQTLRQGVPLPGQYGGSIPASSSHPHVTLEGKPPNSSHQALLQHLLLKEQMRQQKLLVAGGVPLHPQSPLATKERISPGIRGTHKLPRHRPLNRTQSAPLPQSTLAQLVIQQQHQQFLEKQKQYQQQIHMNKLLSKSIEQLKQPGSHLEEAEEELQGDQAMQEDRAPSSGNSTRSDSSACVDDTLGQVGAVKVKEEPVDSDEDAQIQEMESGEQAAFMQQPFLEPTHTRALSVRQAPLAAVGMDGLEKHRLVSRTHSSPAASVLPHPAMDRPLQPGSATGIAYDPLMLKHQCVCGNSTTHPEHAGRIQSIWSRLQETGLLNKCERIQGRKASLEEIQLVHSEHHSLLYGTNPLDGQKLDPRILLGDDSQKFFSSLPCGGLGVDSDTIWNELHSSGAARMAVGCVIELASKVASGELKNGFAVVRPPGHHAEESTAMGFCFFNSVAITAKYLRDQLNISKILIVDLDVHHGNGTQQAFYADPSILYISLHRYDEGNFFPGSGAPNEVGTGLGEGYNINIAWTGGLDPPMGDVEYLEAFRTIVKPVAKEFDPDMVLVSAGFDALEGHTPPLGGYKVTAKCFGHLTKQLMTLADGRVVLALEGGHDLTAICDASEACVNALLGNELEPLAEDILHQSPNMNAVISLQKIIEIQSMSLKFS
HDAC4, sequence (P56524 whole entry): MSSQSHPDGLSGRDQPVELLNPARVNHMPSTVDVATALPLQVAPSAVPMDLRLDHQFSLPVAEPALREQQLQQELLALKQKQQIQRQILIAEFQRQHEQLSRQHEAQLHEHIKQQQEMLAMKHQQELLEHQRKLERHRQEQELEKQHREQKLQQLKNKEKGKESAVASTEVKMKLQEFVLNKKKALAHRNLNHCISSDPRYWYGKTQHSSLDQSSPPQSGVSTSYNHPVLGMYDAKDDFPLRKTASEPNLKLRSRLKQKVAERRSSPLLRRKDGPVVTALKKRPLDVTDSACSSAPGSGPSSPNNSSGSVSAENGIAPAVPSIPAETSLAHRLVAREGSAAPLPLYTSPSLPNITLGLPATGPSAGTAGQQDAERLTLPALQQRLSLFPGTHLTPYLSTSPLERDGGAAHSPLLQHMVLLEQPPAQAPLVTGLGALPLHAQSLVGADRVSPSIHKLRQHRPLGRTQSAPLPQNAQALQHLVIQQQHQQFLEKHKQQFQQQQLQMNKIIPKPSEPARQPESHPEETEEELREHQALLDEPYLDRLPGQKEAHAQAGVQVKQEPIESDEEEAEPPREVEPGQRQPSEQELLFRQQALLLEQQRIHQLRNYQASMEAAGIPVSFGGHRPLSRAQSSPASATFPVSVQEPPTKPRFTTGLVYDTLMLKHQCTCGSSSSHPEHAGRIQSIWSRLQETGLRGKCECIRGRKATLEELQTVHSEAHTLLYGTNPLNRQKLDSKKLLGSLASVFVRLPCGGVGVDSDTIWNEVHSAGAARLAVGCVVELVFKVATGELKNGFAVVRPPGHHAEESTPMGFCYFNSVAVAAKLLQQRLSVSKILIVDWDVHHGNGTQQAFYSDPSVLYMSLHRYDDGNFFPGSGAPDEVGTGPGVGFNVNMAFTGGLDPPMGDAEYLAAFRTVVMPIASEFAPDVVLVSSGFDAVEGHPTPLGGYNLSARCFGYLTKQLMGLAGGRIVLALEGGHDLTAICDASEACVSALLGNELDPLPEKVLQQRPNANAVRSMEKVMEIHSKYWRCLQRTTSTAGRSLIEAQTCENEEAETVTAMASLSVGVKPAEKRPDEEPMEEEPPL

SMILES: CC(=O)Nc1ccc(C(=O)Nc2cc(-c3cccs3)ccc2N)cc1 [Cpd-60]
binding to 80 CNS targets [1]: no significant binding to any of the targets
H4K12ac levels after washout [2]: persistent increases in H4K12ac
H4K12ac levels, constant exposure [2]: elevated H4K12ac levels
concentration at 8 hr ([3]; C57BL/6, mouse, brain, intraperitoneal, 45 mg/kg, systemic treatment, read-out: brain concentration maintained for at least 8 hr): > 100 nM
Cmax ([3]; C57BL/6, mouse, brain, ip, 45 mg/kg, read-out: brain maximum concentration (Cmax)): 830 nM
half-life ([3]; C57BL/6, mouse, brain, ip): 6.44 h
time to peak brain concentration ([3]; systemic treatment): ≤ 5 min
brain uptake by PET [4]: reaches the brain, albeit at low levels relative to plasma
reduction of amphetamine-induced hyperlocomotion (C57BL/6 mice [5]): 36%
reduction in immobility time (C57BL/6 mice [6]; [12]): 67%
overlap with the 121 transcripts modulated by lithium [7]: 11
transcripts altered across the three regions [7]: 390
transcripts up- or down-regulated, summed across the three brain regions [7]: 1609
tolerability of treatment for longer than 10 days (mice): not well tolerated
IC50 (HDAC4): > 30 µM
EC50 [8]: 7.2 µM
IC50 (HDAC8): > 30 µM
IC50 (HDAC5): > 30 µM
IC50 (HDAC7): > 30 µM
IC50 (HDAC9): > 30 µM
H4K12ac levels downstream of the TSS [9]: lower than vehicle-treated controls

half-life ([3]; C57BL/6, mouse, brain, ip): 0.44 h
time until cleared from the brain ([3]; systemic treatment): ≤ 2 h
SMILES: O=C(CCCCCCC(=O)Nc1ccccc1)NO [SAHA, suberoylanilide hydroxamic acid]
H4K12ac levels after washout [2]: only Cpd-60-treated cells showed persistent increases in H4K12ac
H4K12ac levels, constant exposure [2]: elevated H4K12ac levels
reduction of amphetamine-induced hyperlocomotion (C57BL/6 mice [5]): no effect
reduction in immobility time (C57BL/6 mice [6]; [12]): did not influence mouse behavior in either paradigm
overlap with the 121 transcripts modulated by lithium [7]: no significant overlap
transcripts altered across the three regions [7]: 288
transcripts up- or down-regulated, summed across the three brain regions [7]: 1530
downregulated transcripts HIP (total) ([7]; ≥[…], post hoc p<0.05): 148
downregulated transcripts NAc (total) ([7]; ≥[…], post hoc p<0.05): 16
downregulated transcripts PFC (total) ([7]; ≥[…], post hoc p<0.05): 5
upregulated transcripts HIP (total) ([7]; ≥[…], post hoc p<0.05): 104
upregulated transcripts NAc (total) ([7]; ≥[…], post hoc p<0.05): 5
upregulated transcripts PFC (total) ([7]; ≥[…], post hoc p<0.05): 7

SMILES: CNCCCN1c2ccccc2CCc2ccccc21 [desipramine]
reduction in immobility time (C57BL/6 mice [6]; 15 mg/kg i.p., n = 16/group, data not shown): 55%

SMILES: [Li] [lithium]
reduction in immobility time (C57BL/6 mice [10]): 48%
Agxt2l1 fold change [11]: 2.73 fold change
Igfbp5 fold change [11]: -1.56 fold change
Mef2c fold change [11]: -1.22 fold change
Mfsd2 fold change [11]: 2.65 fold change
Nrxn1 fold change [11]: -1.18 fold change
Per2 fold change [11]: 2.47 fold change
Qdpr fold change [11]: -1.46 fold change
Sgk1 fold change [11]: 2.85 fold change
Sult1a1 fold change [11]: 6.28 fold change
Tsc22d3 fold change [11]: 1.95 fold change
Usp54 fold change [11]: 1.57 fold change
